Assays:
[1] = system: PDGF-BB-stimulated VSMC; experiment: PDGF-BB-induced VSMC proliferation assay (CellTiter-Glo); format: cell-based, Human; details: 1 μM RVX equivalent
Experimental: Cell Culture. Human aortic VSMC and culture media (SmBm-2 basal medium for experimental purposes, and SmGm-2 complete medium for expansion) were purchased from Lonza (Walkersville, MD). Cells between passages 5 and 7 were maintained at 37° C. with 5% CO2 and used for all experiments. As established in previous studies, Accutase (ThermoFisher Scientific, Waltham, MA) instead of Trypsin was used for cell detachment to ensure fast cell adhesion and optimal cell status.
Cell Viability Assay of the Nanoclusters. The cytotoxicity and anti-proliferation of the nanoclusters on VSMC was evaluated by a CellTiter-Glo Luminescent Cell Viability kit according to manufacturer's instructions. VSMC were cultured in 96-well plates ([…] and 8×10^4 cells/well for experiments of proliferation and cytotoxicity, respectively) and grown for overnight. For cytotoxicity study, fresh basal medium (supplemented with 0.5% fetal bovine serum) containing NC with different concentrations were added into the plates. For proliferation study, VSMC were treated with 20 nM PDGF-BB to stimulate ROS and proliferation. […] Following 10 min incubation at room temperature, the 96-well plates were analyzed in a FlexStation 3 Benchtop Multi-Mode Microplate Reader (Molecular Devices, San Jose, California) (250-ms integration).

[2] = in vivo; cited from earlier work
[3] = system: balloon-injured carotid arteries; experiment: Morphometric analysis of IH and restenosis in rat carotid artery balloon angioplasty model; details: in vivo
Experimental: Rat Carotid Artery Balloon Angioplasty Model. All animal experiments conform to the protocols approved by the Animal Care and Use Committee (ACUC) of the University of Virginia. All adult male Sprague-Dawley rats (Charles River, weighing 300-350 g) were maintained in a temperature and humidity-controlled SPF level animal facility under a 12 h light-dark cycle. Food and water were available ad libitum. Animals were randomly assigned to each treatment group. The carotid artery balloon injury model was operated as previously described. In brief, after anesthesia with isoflurane (5% for inducing and 2% for maintaining), a mid-line incision in the neck was made, and the carotid arteries and carotid bifurcation were exposed by blunt dissection. The proximal of left carotid artery, inner carotid artery, and external carotid artery were then temporarily ligated with 5-0 nylon suture to avoid excessive blood loss during the surgery. A 1 mm arteriotomy was created on the distal segment of the external carotid arteries. […] Area inside external elastic lamina (EEL area), area inside internal elastic lamina (IEL area), lumen area, intima area (=IEL area—lumen area), and media area (=EEL area—IEL area) were calculated using Image J. Intimal hyperplasia was defined as the ratio of intima area versus media area (Intima-to-media ratio, I/M ratio).

COc1cc(OC)c2c(=O)[nH]c(-c3cc(C)c(OCCO)c(C)c3)nc2c1 [RVX]
effect on VSMC proliferation [1]: failed to exert any notable effect
half-life [2]: 1.5 h
intimal hyperplasia, intima-to-media (I/M) ratio [3]: neither free RVX solution nor that delivered through conventional PLGA NP led to any significant changes

Reference: patent US12582613B2, “Biomimetic, reactive oxygen species-detonable nanoclusters for antirestenotic therapy” (University of Virginia Patent Foundation, priority 2021, dated 2026)
